Key:
Format in all cases: biochemical
[1] = target: T1, hSARM1 full length (Homo sapiens, UniProt Q6SZW1); assay: NADase inhibition by pyridine ribosides (HPLC); conditions: for NADase inhibition (in words): hSARM1, riboside fixed at 200 μM, NAD […]; for IC50: hSARM1 full length, saturating NAD ([…]), preliminary
T1 construct: Human recombinant SARM1 full length proteins (wild-type and E642A mutant); made in house
T1 sequence (Q6SZW1 28-724): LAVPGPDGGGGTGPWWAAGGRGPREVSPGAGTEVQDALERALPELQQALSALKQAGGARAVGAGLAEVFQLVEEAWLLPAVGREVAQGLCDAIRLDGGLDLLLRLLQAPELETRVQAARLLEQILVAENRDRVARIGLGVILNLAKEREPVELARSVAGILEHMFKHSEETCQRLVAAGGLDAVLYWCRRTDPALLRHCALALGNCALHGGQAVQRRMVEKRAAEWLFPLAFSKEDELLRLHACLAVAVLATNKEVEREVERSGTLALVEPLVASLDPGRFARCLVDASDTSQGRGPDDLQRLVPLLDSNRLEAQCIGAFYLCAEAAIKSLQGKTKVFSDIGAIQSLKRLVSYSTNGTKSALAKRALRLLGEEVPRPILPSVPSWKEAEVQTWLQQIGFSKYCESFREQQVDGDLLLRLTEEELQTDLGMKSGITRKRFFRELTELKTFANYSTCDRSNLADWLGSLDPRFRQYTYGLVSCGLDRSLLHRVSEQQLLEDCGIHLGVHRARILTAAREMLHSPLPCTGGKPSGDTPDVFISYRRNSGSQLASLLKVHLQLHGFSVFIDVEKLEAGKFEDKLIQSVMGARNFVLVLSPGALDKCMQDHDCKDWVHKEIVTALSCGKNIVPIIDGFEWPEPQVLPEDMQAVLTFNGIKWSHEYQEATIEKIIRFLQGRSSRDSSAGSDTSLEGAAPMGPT
Method: (§1) hSARM1 species were routinely assayed by the NAD/NADH-Glo^TM Assay (Promega) while both Aplysia cyclase and CD38 were assayed by fluorometry using ϵNAD ([Orsomando et al., 2000]). […] Other reagents used in addition to, or in place of those above are detailed in text or in figure legends, for example metal ions, free bases, dinucleotide analogues, mononucleotides, and ribosides. Assays were all carried out at 25°C except for temperature studies. Reactions were stopped by HClO4/K2CO3 and analysed by C18-HPLC as reported ([Mori et al., 2014]). Only the acid labile NADH and NADPH were treated with 1 N NaOH and neutralized using 1:1 vol of 1.73 M KH2CO3 while the highly hydrophobic metabolites vacor, VAD, VMN and VR, were analysed by a modified C18-HPLC method ([Buonvicino et al., 2018]). Reaction products were quantified from peak areas (see Figure 2A) based on coelution with standards (except for cyclic products from NAD analogues that were not available and were attributed based on UV-spectra and retention times as predicted). Rates were calculated as follows. Hydrolysis and cyclization were measured from product generation from the respective individual dinucleotide substrate used, e.g., free and cyclic ADP-ribosyl moieties from NAD (Figure 1B). A basal value for hydrolysis/cyclization was taken as sum of these latter two products. In addition to that value, base exchange or transglycosidation was calculated from the expected dinucleotide analog formed in the presence of the corresponding free base, e.g., AcPyrAD from AcPyr and NAD. The measured level of overall formed products matched in all cases the dinucleotide substrate consumed and the corresponding pyridine base released, according to the reaction scheme (Figure 1B). Furthermore, enzyme amounts forming 1 μmol/min of overall products above were referred to as single units (U) of activity and initial rates were always considered, for example until a maximum of 20% of the original substrate had been consumed and all products were still accumulating at a nearly linear rate.
(§2) Inhibition by ribosides was assayed by HPLC initially at fixed 200 μM of each NR, NaR or VR and optimized NAD concentrations for the different enzymes (see Figure 6 legend).

[2] = target: T2, hCD38 (Homo sapiens, UniProt P28907); assay: Base exchange reactions at neutral pH (HPLC)
T2 construct: a soluble fragment Val43-Ile300 with 6x-His tag at C terminus; 6xHis (C); purchased R&D Systems
T2 sequence (P28907 43-300): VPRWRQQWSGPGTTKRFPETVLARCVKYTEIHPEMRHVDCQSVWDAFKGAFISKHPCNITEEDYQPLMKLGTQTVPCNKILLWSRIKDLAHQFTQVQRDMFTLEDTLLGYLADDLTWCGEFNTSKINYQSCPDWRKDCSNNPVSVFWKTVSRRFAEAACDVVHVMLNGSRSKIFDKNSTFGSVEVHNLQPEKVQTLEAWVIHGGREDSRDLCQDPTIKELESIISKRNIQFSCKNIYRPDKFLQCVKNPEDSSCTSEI
Method: (§3) Multiple time stops from individual assays as above were analyzed for linearity, then extents of hydrolysis (white bars), cyclization (red bars), or base exchange (black bars) were calculated from each corresponding product as shown in Figure 1B and STAR methods. […] See also Figures S3–S5, and Table S1
as §1, with “NAD.” for “NAD. The measured level of overall formed products matched in all cases the dinucleotide substrate consumed and the corresponding pyridine base released, according to the reaction scheme (Figure 1B). Furthermore, enzyme amounts forming 1 μmol/min of overall products above were referred to as single units (U) of activity and initial rates were always considered, for example until a maximum of 20% of the original substrate had been consumed and all products were still accumulating at a nearly linear rate.”

[3] = target: T1, hSARM1 full length; assay: Base exchange reactions at neutral pH (HPLC)
Method: as §3
as §1, with “NAD.” for “NAD. The measured level of overall formed products matched in all cases the dinucleotide substrate consumed and the corresponding pyridine base released, according to the reaction scheme (Figure 1B). Furthermore, enzyme amounts forming 1 μmol/min of overall products above were referred to as single units (U) of activity and initial rates were always considered, for example until a maximum of 20% of the original substrate had been consumed and all products were still accumulating at a nearly linear rate.”

[4] = target: T3, hSARM1 SAM-TIR (Homo sapiens, UniProt Q6SZW1); assay: Base exchange reactions at neutral pH (HPLC)
T3 construct: made in house
T3 sequence (Q6SZW1 409-724): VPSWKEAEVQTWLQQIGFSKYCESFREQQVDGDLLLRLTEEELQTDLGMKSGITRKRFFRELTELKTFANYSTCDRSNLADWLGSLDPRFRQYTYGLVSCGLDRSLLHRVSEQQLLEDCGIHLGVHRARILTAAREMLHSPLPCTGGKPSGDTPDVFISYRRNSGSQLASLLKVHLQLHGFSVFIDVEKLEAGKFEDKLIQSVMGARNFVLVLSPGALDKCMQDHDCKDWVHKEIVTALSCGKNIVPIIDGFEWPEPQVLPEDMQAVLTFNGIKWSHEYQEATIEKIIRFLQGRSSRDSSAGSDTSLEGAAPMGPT
Method: as §3
(§4) Rates were calculated as follows.

[5] = target: T4, Aplysia californica ADP ribosyl cyclase (Aplysia californica, UniProt P29241); assay: Base exchange reactions at neutral pH (HPLC); set-up: purchased Merck A8950
T4 sequence (P29241 25-282): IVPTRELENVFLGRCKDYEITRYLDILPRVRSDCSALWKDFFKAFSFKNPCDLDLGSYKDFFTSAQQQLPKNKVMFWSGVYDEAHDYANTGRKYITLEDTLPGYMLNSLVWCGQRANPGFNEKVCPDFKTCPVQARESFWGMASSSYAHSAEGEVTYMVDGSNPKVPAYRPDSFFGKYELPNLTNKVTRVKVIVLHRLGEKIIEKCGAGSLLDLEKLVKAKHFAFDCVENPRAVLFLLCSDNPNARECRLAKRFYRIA
Method: as §3, §4

[6] = target: T3, hSARM1 SAM-TIR; assay: NADase inhibition by pyridine ribosides, IC50 and inhibition kinetics (HPLC); conditions: for IC50: NAD […], preliminary; for Ki: variable NAD 15-600 μM
Method: as §1, with “NAD.” for “NAD. The measured level of overall formed products matched in all cases the dinucleotide substrate consumed and the corresponding pyridine base released, according to the reaction scheme (Figure 1B). Furthermore, enzyme amounts forming 1 μmol/min of overall products above were referred to as single units (U) of activity and initial rates were always considered, for example until a maximum of 20% of the original substrate had been consumed and all products were still accumulating at a nearly linear rate.”
as §2

[7] = NAD […] alone or + AcPyr 2 mM / Vacor 0.5 mM / Na 2 mM
[8] = NADP […] alone or + AcPyr 2 mM / Vacor 0.5 mM / Na 2 mM
[9] = hSARM1 full length +NMN 0.2 mM, NAD […]
[10] = hSARM1 full length +NMN 0.2 mM, NADP […]
[11] = hSARM1 full length +VMN 0.05 mM, NAD […]
[12] = hSARM1 full length +VMN 0.05 mM, NADP […]

NC(=O)c1ccc[n+]([C@@H]2O[C@H](CO)[C@@H](O)[C@H]2O)c1 [NR, nicotinamide riboside]
NADase inhibition (in words) [1]: inactive

O=C(O)c1cccnc1 [Na, nicotinic acid]
rate [2, 7]: 7934 ±1182 mU/mg | rate [2, 8]: 3189 ±622 mU/mg | base exchange, share of products [3, 9]: 1.58% | cyclization, share of products [3, 9]: 8.35% | hydrolysis, share of products [3, 9]: 90.07% | rate ([3]; hSARM1 full length +NMN 0.2 mM, NAD […] alone or + free base): 201.5 ±27.9 mU/mg | rate (relative fold) ([3]; hSARM1 full length +NMN 0.2 mM, NAD […], relative to NAD alone without trigger): 9.23 ±1.28 fold | base exchange, share of products [3, 10]: 1.48% | cyclization, share of products [3, 10]: ~ 0.05% | hydrolysis, share of products [3, 10]: 98.47% | rate ([3]; hSARM1 full length +NMN 0.2 mM, NADP […] alone or + free base): 131.9 ±10.5 mU/mg | rate (relative fold) ([3]; hSARM1 full length +NMN 0.2 mM, NADP […], relative to NADP alone without trigger): 8.98 ±0.711 fold | base exchange, share of products [3, 11]: 1.68% | cyclization, share of products [3, 11]: 6.44% | hydrolysis, share of products [3, 11]: 91.88% | rate ([3]; hSARM1 full length +VMN 0.05 mM, NAD […] alone or + free base): 199.0 ±17.6 mU/mg | rate (relative fold) ([3]; hSARM1 full length +VMN 0.05 mM, NAD […], relative to NAD alone without trigger): 9.12 ±0.805 fold | base exchange, share of products [3, 12]: 1.28% | cyclization, share of products [3, 12]: 0.69% | hydrolysis, share of products [3, 12]: 98.03% | rate ([3]; hSARM1 full length +VMN 0.05 mM, NADP […] alone or + free base): 147.6 ±4.76 mU/mg | rate (relative fold) ([3]; hSARM1 full length +VMN 0.05 mM, NADP […], relative to NADP alone without trigger): 10.04 ±0.324 fold | rate ([3]; hSARM1 full length, no trigger, NAD […] alone or + AcPyr 2 mM / Vacor 0.5 mM / Na 2 mM, pH 7.5): 23.3 ±0.83 mU/mg | rate ([3]; hSARM1 full length, no trigger, NADP […] alone or + AcPyr 2 mM / Vacor 0.5 mM / Na 2 mM, pH 7.5): 17.3 ±0.54 mU/mg | base exchange products VAD(P) or NaAD(P), share of total products ([3]; hSARM1 full length, NAD or NADP 250 μM, vacor 0.5 mM, Na 2 mM): 2%–3% | rate [4, 7]: 315.2 ±69.6 mU/mg | rate [4, 8]: 242.0 ±37.3 mU/mg | rate [5, 7]: 14595 ±3147 mU/mg | rate [5, 8]: 9872 ±1846 mU/mg

O=C([O-])c1ccc[n+]([C@@H]2O[C@H](CO)[C@@H](O)[C@H]2O)c1 [NaR, nicotinic acid riboside]
IC50 [1]: 87 µM | inhibition type [6]: mixed-type inhibition | IC50 [6]: 36 µM | Ki [6]: 15 µM

O=C(NCc1ccc[n+]([C@@H]2O[C@H](CO)[C@@H](O)[C@H]2O)c1)Nc1ccc([N+](=O)[O-])cc1 [VR, vacor riboside]
NADase inhibition (in words) [1]: strongly inhibited | IC50 [1]: 154 µM | inhibition type [6]: mixed-type inhibition | IC50 [6]: 61 µM | Ki [6]: 25.9 µM

Reference: article PMC8844822, “SARM1 is a multi-functional NAD(P)ase with prominent base exchange activity, all regulated bymultiple physiologically relevant NAD metabolites” (iScience, 2022)
